Results published in patent US20230033047A1, “Estrogen Metabolite Levels And Cancer Driver Gene Mutations In Lung Cancer Risk Stratification And Treatment” (Institute For Cancer Research d/b/a The Research Institute …, priority 2020, published 2023).
Entries after “also recorded” stand apart in the source; their conditions may differ. Marks after values point to notes of the source that are not given here.

Key:
Assay type in all cases: cell-based, human
HBEC-57KT cells [1] = experiment: Soft agar assay (anchorage independent growth, transformation) of HBEC-57KT cells; settings: for transformation, ability to grow in soft agar: 2, 10, 50, or 100 nM for 27 weeks, FIG. 3; for colony formation / transformation in soft agar: 35 weeks of chronic treatment; for # Established: Experiment 2, picked clones established in culture
Source text: (§1) Three immortalized human bronchial epithelial cell lines (HBEC-57KT, -65KT, and -66KT) were used (see, Ramirez et al., Cancer Res., 2004, 64, 9027-34). […] Cells were immortalized by over-expressing Cdk4 and human telomerase reverse transcriptase (hTERT) to emulate two of the earliest events in lung cancer pathogenesis: abrogation of the p16/RB cell cycle checkpoint pathway and bypass of replicative senescence. HBEC-57KT, -65KT, and -66KT cells were maintained in keratinocyte serum-free (KSF) media containing 50 μg/ml bovine pituitary extract and 5 ng/ml epidermal growth factor. Initially, cells were chronically treated with 0.1% DMSO (vehicle) or 100 nM E2, 4-OHE1 or 4-OHE2. Subsequently, a broader dose range was tested, including 2, 10, 50, or 100 nM […]1, or 2-OHE2. Exposure times ranged from a minimum of 18 weeks and a maximum of 40 weeks. An aliquot from each cell line and treatment was banked in liquid nitrogen every 1-2 weeks. […] Natl. Acad. Sci. USA, 1978, 75, 4001-5). Briefly, each well of a 12-well plate was coated with 0.6% agarose/KSF media. Wells were overlaid with 0.3% agarose/KSF media containing 5000 HBEC-KT cells. RKO colon carcinoma cells were included as a positive control. Each assay was performed in triplicate. After 4-6 weeks, plates were either stained with crystal violet for counting or used to isolate viable clones. Transformed clones were picked using a p200 pipette tip, placed back in culture under pre-treatment conditions in KSF media, and expanded for future analyses.

HBEC-65KT cells [2] = experiment: Soft agar assay (anchorage independent growth, transformation) of HBEC-65KT cells; settings: for # Established: Experiment 2, picked clones established in culture
Source text: as §1

HBEC-66KT cells = experiment: Soft agar assay (anchorage independent growth, transformation) of HBEC-66KT cells; settings: chronic treatment, data not shown
Source text: Three immortalized human bronchial epithelial cell lines (HBEC-57KT, -65KT, and -66KT) were used (see, Ramirez et al., Cancer Res., 2004, 64, 9027-34). […] Cells were immortalized by over-expressing Cdk4 and human telomerase reverse transcriptase (hTERT) to emulate two of the earliest events in lung cancer pathogenesis: abrogation of the p16/RB cell cycle checkpoint pathway and bypass of replicative senescence. HBEC-57KT, -65KT, and -66KT cells were maintained in keratinocyte serum-free (KSF) media containing 50 μg/ml bovine pituitary extract and 5 ng/ml epidermal growth factor. Initially, cells were chronically treated with 0.1% DMSO (vehicle) or 100 nM E2, 4-OHE1 or 4-OHE2. Subsequently, a broader dose range was tested, including 2, 10, 50, or 100 nM […]1, or 2-OHE2. Exposure times ranged from a minimum of 18 weeks and a maximum of 40 weeks. An aliquot from each cell line and treatment was banked in liquid nitrogen every 1-2 weeks. At specific timepoints (18, 24 and 34 weeks post-treatment), each treated cell line was assayed for transformation by assessing anchorage independent growth in soft agar according to the method of de Larco and Todaro (see, de Larco et al., Proc. Natl. Acad. Sci. USA, 1978, 75, 4001-5). Briefly, each well of a 12-well plate was coated with 0.6% agarose/KSF media. Wells were overlaid with 0.3% agarose/KSF media containing 5000 HBEC-KT cells. RKO colon carcinoma cells were included as a positive control. Each assay was performed in triplicate. After 4-6 weeks, plates were either stained with crystal violet for counting or used to isolate viable clones. Transformed clones were picked using a p200 pipette tip, placed back in culture under pre-treatment conditions in KSF media, and expanded for future analyses.

HBEC-57KT cells [3] = experiment: Comet assay of DNA damage in HBEC-57KT cells; settings: HBEC-57KT (high-activity CYP1B1, low-activity COMT); short-term treatment; FIG. 4
Method: (§2) DNA was extracted from expanded clones for sequencing. The mutation status of 50 oncogenic driver genes was examined in transformed cells by next-gen sequencing using an AmpliSeq Illumina for Cancer Hotspot Panel v2. Data were analyzed using Illumina software. DNA damage induced by short-term treatment with estrogens was measured using the Comet assay (see, Mozaffarieh et al., Mol. Vis., 2008, 14, 1584-8). Other assays, however, may be used as desired.

HBEC-65KT cells [4] = experiment: Comet assay of DNA damage in HBEC-65KT cells; settings: HBEC-65KT (high-activity CYP1B1, low-activity COMT); short-term treatment; FIG. 4
Method: as §2

[5] = Experiment 2, chronic treatment, 100 nM, soft agar
[6] = Experiment 3, 18 weeks treated, colonies diffuse, did not grow once picked (not fully transformed)

| SMILES | transformation, ability to grow in soft agar (HBEC-57KT cells [1]) | colony formation / transformation in soft agar (HBEC-57KT cells [1]) | # Colonies (HBEC-57KT cells [1]; [5]) | # Established (HBEC-57KT cells [1]) | # Colonies (HBEC-57KT cells [1]; Experiment 3, 35 weeks treated) | # Colonies (HBEC-65KT cells [2]; [5]) | # Established (HBEC-65KT cells [2]) | # Colonies (HBEC-65KT cells [2]; Experiment 3, 35 weeks treated) | transformation (HBEC-66KT cells) | # Colonies (HBEC-57KT cells [1]; [6]) | DNA damage, comet tail moment vs. DMSO (HBEC-57KT cells [3]) | DNA damage, comet tail moment vs. DMSO (HBEC-65KT cells [4]) | colony formation in soft agar (HBEC-65KT cells [2]; 35 weeks of chronic treatment) | # Colonies (HBEC-65KT cells [2]; Experiment 3, 18 weeks treated) |
| --- | --- | --- | --- | --- | --- | --- | --- | --- | --- | --- | --- | --- | --- | --- |
| C[C@]12CC[C@@H]3c4cc(O)c(O)cc4CC[C@H]3[C@@H]1CCC2=O [2-OHE1] | can transform HBEC-57KT cells |  |  |  |  |  |  |  |  |  |  |  |  |  |
| C[C@]12CC[C@@H]3c4cc(O)c(O)cc4CC[C@H]3[C@@H]1CC[C@@H]2O [2-OHE2] | can transform HBEC-57KT cells |  |  |  |  |  |  |  |  |  |  |  |  |  |
| C[C@]12CC[C@@H]3c4ccc(O)c(O)c4CC[C@H]3[C@@H]1CCC2=O [4-OHE1] | can transform HBEC-57KT cells | also transformed HBEC-57KT cells | 0 | 0 | 5 (small) | 0 | 0 | 0 | None of the tested treatments; also recorded: negative for transformation |  |  |  |  |  |
| C[C@]12CC[C@@H]3c4ccc(O)c(O)c4CC[C@H]3[C@@H]1CC[C@@H]2O [4-OHE2] | can transform HBEC-57KT cells | efficient colony formation | 40 | 11 | 54 | 0 | 0 | 0 | None of the tested treatments; also recorded: negative for transformation | 4* | induce DNA damage | induce DNA damage |  |  |
| C[C@]12CC[C@@H]3c4ccc(O)cc4CC[C@H]3[C@@H]1CC[C@@H]2O [E2, 17β estradiol] | can transform HBEC-57KT cells | low level colony formation | 13 | 6 | 30 | 11 | 4 | 34 | None of the tested treatments; also recorded: negative for transformation | 0 | induce DNA damage | induce DNA damage | low level colony formation | 0 |
